According to the supplement of paper PMC10307832:

Key:
Assay in all cases: relative viability (nuclei count vs DMSO), 5 days (fraction); higher = more cells survive
Calu-6 = test system: Calu-6
Procedure, shortened: (§1)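 Medians of duplicate plates are given as relative viability. That measure is the nuclei count in treated wells divided by the count in vehicle wells. Counts were taken on 4× images of lung cancer cell lines in 1536-well plates, 5 days after pin-tool dosing the day after seeding with one drug alone or a fixed anchor-drug dose plus five library-drug doses (not always all listed) in √10 steps.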

SW 1573 = test system: SW 1573
Procedure, shortened: as §1

ChaGo-K-1 = test system: ChaGo-K-1
Procedure, shortened: as §1

NCI-H1651 = test system: NCI-H1651
Procedure, shortened: as §1

A549 = test system: A549
Procedure, shortened: as §1

SK-MES-1 = test system: SK-MES-1
Procedure, shortened: as §1

NCI-H1703 = test system: NCI-H1703
Procedure, shortened: as §1

COR-L23 = test system: COR-L23
Procedure, shortened: as §1

NCI-H1299 = test system: NCI-H1299
Procedure, shortened: as §1

IA-LM = test system: IA-LM
Procedure, shortened: as §1

NCI-H1437 = test system: NCI-H1437
Procedure, shortened: as §1

EBC-1 = test system: EBC-1
Procedure, shortened: as §1

Compound: Cc1sc2c(c1C)C(c1ccc(Cl)cc1)=N[C@@H](CC(=O)OC(C)(C)C)c1nnc(C)n1-2 [JQ1] + CC1(C)CCC(c2ccc(Cl)cc2)=C(CN2CCN(c3ccc(C(=O)NS(=O)(=O)c4ccc(N[C@H](CCN5CCOCC5)CSc5ccccc5)c(S(=O)(=O)C(F)(F)F)c4)cc3)CC2)C1 [Navitoclax] (partner 0.5 µM)
- relative viability (Calu-6; first compound 0.04 µM): 0.821
- relative viability (Calu-6; first compound 0.1265 µM): 0.757
- relative viability (Calu-6; first compound 0.4 µM): 0.792
- relative viability (Calu-6; first compound 1.265 µM): 0.481
- relative viability (Calu-6; first compound 4 µM): 0.309
- relative viability (SW 1573; first compound 0.04 µM): 0.984
- relative viability (SW 1573; first compound 0.1265 µM): 0.756
- relative viability (SW 1573; first compound 0.4 µM): 0.827
- relative viability (SW 1573; first compound 1.265 µM): 0.536
- relative viability (SW 1573; first compound 4 µM): 0.239
- relative viability (ChaGo-K-1; first compound 0.04 µM): 1.08
- relative viability (ChaGo-K-1; first compound 0.4 µM): 0.868
- relative viability (ChaGo-K-1; first compound 1.265 µM): 0.405
- relative viability (ChaGo-K-1; first compound 4 µM): 0.481
- relative viability (NCI-H1651; first compound 0.04 µM): 0.928
- relative viability (NCI-H1651; first compound 0.1265 µM): 0.819
- relative viability (NCI-H1651; first compound 0.4 µM): 0.701
- relative viability (NCI-H1651; first compound 1.265 µM): 0.525
- relative viability (NCI-H1651; first compound 4 µM): 0.439
- relative viability (A549; first compound 0.04 µM): 1.27
- relative viability (A549; first compound 0.1265 µM): 1.06
- relative viability (A549; first compound 0.4 µM): 1.13
- relative viability (A549; first compound 1.265 µM): 0.702
- relative viability (A549; first compound 4 µM): 0.313
- relative viability (SK-MES-1; first compound 0.04 µM): 1.29
- relative viability (SK-MES-1; first compound 0.1265 µM): 1.07
- relative viability (SK-MES-1; first compound 0.4 µM): 1.12
- relative viability (SK-MES-1; first compound 1.265 µM): 0.477
- relative viability (SK-MES-1; first compound 4 µM): 0.264
- relative viability (NCI-H1703; first compound 0.04 µM): 1.27
- relative viability (NCI-H1703; first compound 0.1265 µM): 0.637
- relative viability (NCI-H1703; first compound 0.4 µM): 0.928
- relative viability (NCI-H1703; first compound 1.265 µM): 0.405
- relative viability (NCI-H1703; first compound 4 µM): 0.309
- relative viability (COR-L23; first compound 0.04 µM): 1.02
- relative viability (COR-L23; first compound 0.1265 µM): 0.763
- relative viability (COR-L23; first compound 0.4 µM): 0.858
- relative viability (COR-L23; first compound 1.265 µM): 0.357
- relative viability (COR-L23; first compound 4 µM): 0.155
- relative viability (NCI-H1299; first compound 0.04 µM): 1.02
- relative viability (NCI-H1299; first compound 0.1265 µM): 0.92
- relative viability (NCI-H1299; first compound 0.4 µM): 0.933
- relative viability (NCI-H1299; first compound 1.265 µM): 0.591
- relative viability (NCI-H1299; first compound 4 µM): 0.419
- relative viability (IA-LM; first compound 0.04 µM): 0.745
- relative viability (IA-LM; first compound 0.1265 µM): 0.294
- relative viability (IA-LM; first compound 0.4 µM): 0.126
- relative viability (IA-LM; first compound 1.265 µM): 0.0769
- relative viability (IA-LM; first compound 4 µM): 0.0558
- relative viability (NCI-H1437; first compound 0.04 µM): 1.03
- relative viability (NCI-H1437; first compound 0.1265 µM): 0.798
- relative viability (NCI-H1437; first compound 0.4 µM): 0.693
- relative viability (NCI-H1437; first compound 1.265 µM): 0.325
- relative viability (NCI-H1437; first compound 4 µM): 0.306
- relative viability (EBC-1; first compound 0.04 µM): 0.389
- relative viability (EBC-1; first compound 0.1265 µM): 0.165
- relative viability (EBC-1; first compound 0.4 µM): 0.174
- relative viability (EBC-1; first compound 1.265 µM): 0.136
- relative viability (EBC-1; first compound 4 µM): 0.125

Compound: Nc1ccn([C@@H]2O[C@H](CO)[C@@H](O)[C@@H]2O)c(=O)n1 [Cytarabine] + CC1(C)CCC(c2ccc(Cl)cc2)=C(CN2CCN(c3ccc(C(=O)NS(=O)(=O)c4ccc(N[C@H](CCN5CCOCC5)CSc5ccccc5)c(S(=O)(=O)C(F)(F)F)c4)cc3)CC2)C1 [Navitoclax] (partner 0.5 µM)
- relative viability (Calu-6; first compound 0.005 µM): 0.831
- relative viability (Calu-6; first compound 0.01581 µM): 0.796
- relative viability (Calu-6; first compound 0.05 µM): 0.9
- relative viability (Calu-6; first compound 0.1581 µM): 0.338
- relative viability (Calu-6; first compound 0.5 µM): 0.22
- relative viability (SW 1573; first compound 0.005 µM): 0.979
- relative viability (SW 1573; first compound 0.01581 µM): 0.79
- relative viability (SW 1573; first compound 0.05 µM): 0.556
- relative viability (SW 1573; first compound 0.1581 µM): 0.223
- relative viability (SW 1573; first compound 0.5 µM): 0.103
- relative viability (ChaGo-K-1; first compound 0.005 µM): 0.74
- relative viability (ChaGo-K-1; first compound 0.01581 µM): 0.505
- relative viability (ChaGo-K-1; first compound 0.05 µM): 0.453
- relative viability (ChaGo-K-1; first compound 0.1581 µM): 0.364
- relative viability (ChaGo-K-1; first compound 0.5 µM): 0.37
- relative viability (NCI-H1651; first compound 0.005 µM): 0.993
- relative viability (NCI-H1651; first compound 0.01581 µM): 1.18
- relative viability (NCI-H1651; first compound 0.05 µM): 1.24
- relative viability (NCI-H1651; first compound 0.1581 µM): 0.625
- relative viability (NCI-H1651; first compound 0.5 µM): 0.3
- relative viability (A549; first compound 0.005 µM): 0.969
- relative viability (A549; first compound 0.01581 µM): 0.588
- relative viability (A549; first compound 0.05 µM): 0.476
- relative viability (A549; first compound 0.1581 µM): 0.0384
- relative viability (A549; first compound 0.5 µM): 0.0234
- relative viability (SK-MES-1; first compound 0.005 µM): 0.957
- relative viability (SK-MES-1; first compound 0.01581 µM): 0.869
- relative viability (SK-MES-1; first compound 0.05 µM): 0.408
- relative viability (SK-MES-1; first compound 0.1581 µM): 0.22
- relative viability (SK-MES-1; first compound 0.5 µM): 0.178
- relative viability (NCI-H1703; first compound 0.005 µM): 0.717
- relative viability (NCI-H1703; first compound 0.01581 µM): 0.365
- relative viability (NCI-H1703; first compound 0.05 µM): 0.244
- relative viability (NCI-H1703; first compound 0.1581 µM): 0.135
- relative viability (NCI-H1703; first compound 0.5 µM): 0.105
- relative viability (COR-L23; first compound 0.005 µM): 0.944
- relative viability (COR-L23; first compound 0.01581 µM): 0.842
- relative viability (COR-L23; first compound 0.05 µM): 0.555
- relative viability (COR-L23; first compound 0.1581 µM): 0.168
- relative viability (COR-L23; first compound 0.5 µM): 0.129
- relative viability (NCI-H1299; first compound 0.005 µM): 1.09
- relative viability (NCI-H1299; first compound 0.01581 µM): 1.13
- relative viability (NCI-H1299; first compound 0.05 µM): 1.08
- relative viability (NCI-H1299; first compound 0.1581 µM): 1.02
- relative viability (NCI-H1299; first compound 0.5 µM): 0.989
- relative viability (IA-LM; first compound 0.005 µM): 0.917
- relative viability (IA-LM; first compound 0.01581 µM): 0.603
- relative viability (IA-LM; first compound 0.05 µM): 0.64
- relative viability (IA-LM; first compound 0.1581 µM): 0.279
- relative viability (IA-LM; first compound 0.5 µM): 0.151
- relative viability (NCI-H1437; first compound 0.005 µM): 0.875
- relative viability (NCI-H1437; first compound 0.01581 µM): 0.637
- relative viability (NCI-H1437; first compound 0.05 µM): 0.469
- relative viability (NCI-H1437; first compound 0.1581 µM): 0.214
- relative viability (NCI-H1437; first compound 0.5 µM): 0.175
- relative viability (EBC-1; first compound 0.005 µM): 0.304
- relative viability (EBC-1; first compound 0.01581 µM): 0.281
- relative viability (EBC-1; first compound 0.05 µM): 0.233
- relative viability (EBC-1; first compound 0.1581 µM): 0.222
- relative viability (EBC-1; first compound 0.5 µM): 0.165
